# Data reported in patent publication US12691109B2, “Bifunctional aggregation-induced emission luminogen for monitoring and killing of multidrug-resistant bacteria” (The Hong Kong University of Science and Technology, priority 2018, dated 2026).
# Entries after “also recorded” stand apart in the source; their conditions may differ.
# How the values were obtained:
# [1] = test system: MDR S. epidermidis-infected wounds; assay: Bacteria-infected full-thickness skin wound model on rats; format: in vivo, Wistar rats
# Source text: (§1) FIGS. 26A-D show In vivo evaluation of TriPE-NT in treatment of bacteria-infected wounds on rats. FIG. 26A illustrates the process of establishing bacteria-infected full-thickness skin wound models on rats. […] FIG. 26C is a graph plotting the proportion of the E. coli and MDR E. coli infected wound area on day 3 and day 7 after the injury. FIG. 26D is a graph plotting the proportion of the S. epidermidis and MDR S. epidermidis infected wound area on day 3 and day 7 after the injury (each experiment was repeated at least 5 times).
# (§2) To further evaluate the anti-bacterial activity of TriPE-NT in vivo, the performance of TriPE-NT on bacteria-infected wounds of rats was tested. E. coli-, MDR E. coli-, S. epidermidis or MDR S. epidermidis-infected, full-thickness skin wounds were established on the dorsal skin of the Wistar rats (FIG. 26A). The macroscopic appearance of the healing processes of the wounds was captured at different time points (FIG. 26B).
# (§3) Hematoxylin and eosin (HE) staining was carried out for evaluating the wound healing of the sectioned tissues of the E. coli-, MDR E. coli-, S. epidermidis- and MDR S. epidermidis-infected wounds on the Wistar rats on day 3 and day 7 post-injury (FIG. 28). […] Fibroblasts can secret collagens which accelerate wound reconstruction, that means the TriPE-NT plus light irradiation can promote the wound healing.
# E. coli-infected wounds = assay: as above; format: in vivo, Wistar rats
# Source text: as §1, §2, §3
# [2] = test system: MDR E. coli-infected wounds; assay: as above; format: in vivo, Wistar rats
# Source text: as §1, §2, §3
# [3] = test system: S. epidermidis-infected wounds; assay: as above; format: in vivo, Wistar rats
# Source text: as §1, §2, §3
# MDR K. pneumoniae = assay: Light-enhanced bacteria killing, plate counting method; format: cell-based
# Protocol: (§4) FIGS. 15C-F are graphs depicting bacteria survival rates for bacteria that were incubated with TriPE-NT (10 μM) for 10 min, the bacteria suspensions (50 μL) were plated on agar plates and treated by white-light illumination (4 mW cm^−2) for 0, 2 and 30 min respectively. FIG. 15C is a graph plotting survival rate versus time of E. coli and MDR E. coli. FIG. 15D is a graph plotting survival rate versus time of K. pneumoniae and MDR K. pneumoniae. FIG. 15E is a graph plotting survival rate versus time of S. epidermidis and MDR S. epidermidis. FIG. 15F is a graph plotting survival rate versus time of S. aureus and MDR S. aureus.
# (§5) The bacteria killing effect of TriPE-NT was evaluated on both wild and clinically isolated MDR bacteria by a traditional plate counting method. First, E. coli and S. epidermidis, as the representative of Gram-negative (G−) and Gram-positive (G+) bacteria, were used to determine the effective bactericidal concentration and illumination time. The bacteria were incubated with TriPE-NT (0, 5, 10 μM) for 0 and 10 min, the bacteria suspensions (50 μL) were plated on agar plates and treated by white-light illumination (4 mW cm^−2) for 2, 10 and 30 min respectively (FIGS. 16A-B). […] Thus, 10 μM TriPE-NT and light irradiation for 2 min or 30 min were set as experimental conditions in the following experiments.
# K. pneumoniae = assay: as above; format: cell-based
# Protocol: as §4, §5
# MDR S. aureus [4] = assay: as above; format: cell-based
# Protocol: as §4, §5
# MDR S. epidermidis [5] = assay: as above; format: cell-based; conditions: in darkness, 10 μM TriPE-NT
# Protocol: as §4, §5
# MDR E. coli = assay: as above; format: cell-based
# Protocol: as §4, §5
# S. aureus [6] = assay: as above; format: cell-based
# Protocol: as §4, §5
# MDR S. aureus [7] = assay: Bacteria staining with TriPE-NT and PI, CLSM; format: cell-based; conditions: 10 min
# Protocol: (§6) FIG. 21B is a graph plotting stained percentages for E. coli, MDR E. coli, K. pneumoniae, MDR K. pneumoniae, S. epidermidis, MDR S. epidermidis, S. aureus, and MDR S. aureus.
# (§7) FIG. 21C is a graph plotting percentage of dead bacteria stained by propidium iodine (PI) after the bacteria were incubated with 10 μM of TriPE-NT or PI for 10 min.
# (§8) TriPE-NT: Ex=405 nm, Em=500-560 nm; PI: Ex=514, Em=600-700.
# (§9) To indicate the status of the bacteria after TriPE-NT treatment, the bacteria was incubated with commercial dead bacteria-staining fluorescent reagent propidium iodide (PI) and TriPE-NT at the same time. Thanks to the AIE characteristics and water solubility of TriPE-NT, there was almost no background fluorescence in the imaging field. E. coli and S. epidermidis, which emitted bright orange (TriPE-NT) or red (PI) fluorescence, are clearly visualized under confocal laser scanning microscope (CLSM) (FIG. 21A-C, 22-23). […] In comparison, relatively low percentage of Gram-negative bacteria were stained by TriPE-NT (e.g., 88.1±9.8% E. coli, 84.3±12.7% MDR E. coli, 47.9±7.7% K. pneumoniae and 35.8±4.9% MDR K. pneumoniae) (FIG. 21B, FIG. 22). […] By contrast, relatively low percentages of E. coli (22.1±12.2% E. coli) were co-stained by both TriPE-NT and PI (FIGS. 21A, C), which is also similar to other Gram-negative bacteria (15.3±3.7%, MDR E. coli, 8.8±3.2%, K. pneumoniae and 6.4±2.6% MDR K. pneumoniae) (FIGS. 21A & C, 22). The reason for this difference possibly is ascribed to the extra membrane of Gram-negative bacteria which is absent in Gram-positive bacteria. These observations also illustrated that both Gram-negative bacteria and Gram-positive bacteria are vulnerable to TriPE-NT treatment, the possible reason is that these bacteria with negatively charged membranes, could anchor, uptake, and aggregate the positively charged probe, which restricts the intramolecular motion of the probe and causes their fluorescence emission.
# MDR S. epidermidis [8] = assay: Bacteria staining with TriPE-NT and PI, CLSM; format: cell-based; conditions: 10 min
# Protocol: as §6, §7, §8, §9
# S. aureus [9] = assay: Bacteria staining with TriPE-NT and PI, CLSM; format: cell-based; conditions: 10 min
# Protocol: as §6, §7, §8, §9
# [10] = day 3 post-injury, TriPE-NT plus light vs control
# [11] = day 3 post-injury, TriPE-NT plus light vs untreated
# [12] = day 7 post-injury, TriPE-NT plus light (4 mW cm^−2, 30 min) vs control
# [13] = day 7 post-injury, TriPE-NT plus light vs control
# [14] = 10 μM, white light 4 mW cm^−2, 30 min
structure (smiles),measurement,setting,value
COc1ccc(C(=Cc2ccc(-c3ccc4c5c(cccc35)C(=O)N(CCCCn3c[n+](Cc5ccc(F)cc5F)cn3)C4=O)cc2)c2ccc(OC)cc2)cc1 [TriPE-NT],"wound size, MDR S. epidermidis-infected wounds",[1]; [10],no apparent difference
same,"HE staining of wound tissue, invaded lymphocytes, MDR S. epidermidis-infected wounds",[1]; [11],reduced the inflammatory reactions
same,"wound size, MDR S. epidermidis-infected wounds",[1]; [12],significantly smaller sizes
same,"HE staining of wound tissue, MDR S. epidermidis-infected wounds",[1]; [13],appearance of fibroblasts and newly formed squamous epithelial layers
same,"wound size, E. coli-infected wounds",E. coli-infected wounds; [10],no apparent difference
same,"HE staining of wound tissue, invaded lymphocytes, E. coli-infected wounds",E. coli-infected wounds; [11],reduced the inflammatory reactions
same,"wound size, E. coli-infected wounds",E. coli-infected wounds; [12],more apparent reduction of wound size
same,"wound size, MDR E. coli-infected wounds",[2]; [10],no apparent difference
same,"HE staining of wound tissue, invaded lymphocytes, MDR E. coli-infected wounds",[2]; [11],reduced the inflammatory reactions
same,"wound size, MDR E. coli-infected wounds",[2]; [12],significantly smaller
same,"wound size, S. epidermidis-infected wounds",[3]; [10],no apparent difference
same,"HE staining of wound tissue, invaded lymphocytes, S. epidermidis-infected wounds",[3]; [11],reduced the inflammatory reactions
same,"wound size, S. epidermidis-infected wounds",[3]; [12],more apparent reduction of wound size
same,"HE staining of wound tissue, S. epidermidis-infected wounds",[3]; [13],appearance of fibroblasts and newly formed squamous epithelial layers; also recorded: appearance of hair follicles
same,MDR K. pneumoniae killed,MDR K. pneumoniae; [14],> 61%
same,survival rate of MDR K. pneumoniae,"MDR K. pneumoniae; in darkness, 10 μM TriPE-NT",~74.4±3.7%
same,K. pneumoniae killed,K. pneumoniae; [14],> 90%
same,survival rate of K. pneumoniae,"K. pneumoniae; in darkness, 10 μM TriPE-NT",~59.9±6.5%
same,MDR S. aureus killed,MDR S. aureus [4]; [14],> 97%
same,survival rate of MDR S. aureus,"MDR S. aureus [4]; in darkness, 10 μM TriPE-NT",~22.4±1.9%
same,killing of MDR S. epidermidis,MDR S. epidermidis [5],killed nearly all
same,MDR E. coli killed,MDR E. coli; [14],more than 96%
same,survival rate of MDR E. coli,"MDR E. coli; in darkness, 10 μM TriPE-NT",~14.1±1.4%
same,S. aureus killed,S. aureus [6]; [14],> 98%
same,survival rate of S. aureus,"S. aureus [6]; in darkness, 10 μM TriPE-NT",~8.9±1.1%
same,percentage of MDR S. aureus co-stained by TriPE-NT and PI (dead bacteria),MDR S. aureus [7]; 10 μM TriPE-NT and PI,57.4±1.3%
same,percentage of MDR S. aureus stained by TriPE-NT,MDR S. aureus [7]; 10 μM,80.9±1.7%
same,percentage of MDR S. epidermidis co-stained by TriPE-NT and PI (dead bacteria),MDR S. epidermidis [8]; 10 μM TriPE-NT and PI,74.8±11.4%
same,percentage of MDR S. epidermidis stained by TriPE-NT,MDR S. epidermidis [8]; 10 μM,92.9±6.6%
same,percentage of S. aureus co-stained by TriPE-NT and PI (dead bacteria),S. aureus [9]; 10 μM TriPE-NT and PI,67.3±12.2%
same,percentage of S. aureus stained by TriPE-NT,S. aureus [9]; 10 μM,86.1±1.9%
